Format in all cases: cell-based
In one series the test system is HEK-293T. In words: Cytotoxicity against HEK293T cells transfected with human IDO1 or mouse IDO2 assessed as apoptotic cells at 200 uM after 7 hrs or 24 hrs by DAPI staining based cytometric analysis relative to control.
Series [1] deals with T1, Indoleamine 2,3-dioxygenase 2 (Mus musculus) (UniProt Q8R0V5).
T1 sequence (whole entry): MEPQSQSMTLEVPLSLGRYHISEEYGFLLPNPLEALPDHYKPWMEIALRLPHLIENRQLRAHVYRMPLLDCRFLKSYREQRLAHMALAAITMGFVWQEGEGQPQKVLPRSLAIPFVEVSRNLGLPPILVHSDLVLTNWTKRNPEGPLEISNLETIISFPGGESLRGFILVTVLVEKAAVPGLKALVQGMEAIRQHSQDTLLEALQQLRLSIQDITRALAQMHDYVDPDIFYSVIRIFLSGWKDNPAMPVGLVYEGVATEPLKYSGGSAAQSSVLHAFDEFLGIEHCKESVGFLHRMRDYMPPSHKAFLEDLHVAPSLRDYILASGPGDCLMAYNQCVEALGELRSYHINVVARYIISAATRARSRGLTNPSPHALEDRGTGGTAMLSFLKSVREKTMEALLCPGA
Briefly: Inhibition of mouse IDO2 transfected in HEK293T cells assessed as kynurenine formation using L-Trp as substrate at 200 uM after 24 hrs.

In series [2] the target is T2, Indoleamine 2,3-dioxygenase 1 (Homo sapiens, UniProt P14902). In words: Inhibition of human IDO1 transfected in HEK293T cells assessed as kynurenine formation using L-Trp as substrate at 200 uM after 7 hrs.
Target sequence in this assay (P14902 whole entry, looked up): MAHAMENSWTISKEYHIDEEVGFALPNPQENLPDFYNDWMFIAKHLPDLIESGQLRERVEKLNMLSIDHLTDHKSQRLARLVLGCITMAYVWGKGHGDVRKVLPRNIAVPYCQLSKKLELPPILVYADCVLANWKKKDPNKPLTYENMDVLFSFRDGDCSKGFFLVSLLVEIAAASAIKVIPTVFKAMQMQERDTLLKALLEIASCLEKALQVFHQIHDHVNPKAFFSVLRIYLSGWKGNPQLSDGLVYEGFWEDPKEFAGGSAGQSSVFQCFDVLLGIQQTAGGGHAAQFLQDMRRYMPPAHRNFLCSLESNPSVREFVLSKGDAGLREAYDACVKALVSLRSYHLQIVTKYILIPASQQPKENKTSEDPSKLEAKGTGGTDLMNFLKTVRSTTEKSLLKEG
Series [3] concerns the target T3, Indoleamine 2,3-dioxygenase 2 (Mus musculus, UniProt Q8R0V5).
T3 sequence (Q8R0V5 whole entry): T1 sequence (whole entry)
In words: Inhibition of mouse IDO2 transfected in HEK293T cells assessed as kynurenine formation using L-Trp as substrate after 24 hrs.

A short description of series [4]: Selectivity ratio of IC50 for human IDO1 to IC50 for mouse IDO2 transfected in HEK293T cells.
Series [5] addresses T2, Indoleamine 2,3-dioxygenase 1. Briefly: Inhibition of human IDO1 transfected in HEK293T cells assessed as kynurenine formation using L-Trp as substrate after 7 hrs.
Target sequence in this assay (P14902 whole entry): as the sequence (P14902 whole entry, looked up) above

SMILES strings stand for the structures.

As usually defined, the inhibition is how much of the control response was suppressed. As a reminder, the IC50 is the concentration at which inhibition is half-maximal.

On to `c1ccc(-c2c[nH]nn2)c(CCC2CCCCC2)c1`, for which the Activity with HEK-293T was 72.3%. The inhibition in series [1] amounted to 95%; in series [2], 77%.

`c1ccc(Cc2ccccc2-c2c[nH]nn2)cc1`: the Activity with HEK-293T was found to be 0%. For the same compound, the half-inhibitory concentration (IC50) in series [3] came to 70 µM; in series [5], 105 µM. Moreover, the values for the inhibition in series [1] and in series [2] were 80% and 84%, respectively. Besides, the Ratio IC50 in series [4] turned out to be 1.5.

For `Clc1ccccc1-c1c[nH]nn1`, the Activity with HEK-293T came to 0.2%.

In the case of `Clc1ccccc1-c1cnn[nH]1`, the results for the inhibition in series [1] and in series [2] were 4% and 83%, respectively.

For the compound `Clc1cccc(-c2c[nH]nn2)c1CCC1CCCC1`, in the series with HEK-293T, the Activity is 21.5%. Besides, the inhibition in series [1] came to 90%; in series [2], 71%.

Take `c1ccc(-c2c[nH]nn2)c(CCC2CCCC2)c1`: the Activity in the series on HEK-293T is 35.1%. The inhibition was determined as 89% in series [1] and 74% in series [2].

On to `OC(Cc1ccccc1-c1c[nH]nn1)c1ccccc1` (configuration not stated), for which, in the series on HEK-293T, the Activity was 0%. The inhibition in series [1] amounted to 47%; in series [2] it was 28%.

In the case of `Clc1ccc(-c2c[nH]nn2)cc1`, the values for the inhibition in series [1] and in series [2] were 27% and 9%, respectively.

Consider `Clc1cccc(-c2c[nH]nn2)c1/C=C/C1CCCCC1`, for which the Activity with HEK-293T is listed as 5.4%. Also, the IC50 in series [3] and in series [5] was 110 µM each time. Further, the inhibition turned out to be 65% in series [1] and 56% in series [2]. For the same compound, the Ratio IC50 in series [4] is 1.

For the compound `Oc1ccc(Cl)cc1-c1c[nH]nn1`, the Activity in the series with HEK-293T was determined as 0%. The IC50 in series [3] stood at 120 µM. Also, the inhibition in series [1] was 43%; in series [2], 98%.

On to `Oc1ccccc1-c1c[nH]nn1`, for which the Activity in the series with HEK-293T is 0.2%. Also, the inhibition in series [1] worked out at 14%; in series [2], 96%.

On to `Clc1cccc(-c2c[nH]nn2)c1CCc1ccccc1`, for which the Activity with HEK-293T turned out to be 70.8%. Besides, the inhibition in series [1] was 94%; in series [2], 76%.

As to `Clc1cccc(-c2c[nH]nn2)c1/C=C/c1ccccc1`, the Activity in the series on HEK-293T stood at 57.9%. For the same compound, the inhibition in series [1] amounted to 97%; in series [2], 32%.

As to `c1ccc(CCc2ccccc2-c2c[nH]nn2)cc1`, the Activity in the series with HEK-293T is recorded as 3.7%. Moreover, the IC50 worked out at 51 µM in series [3] and 100 µM in series [5]. The inhibition in series [1] stood at 90%; in series [2] it was 58%. In addition, in series [4], the Ratio IC50 was 2.

For `c1ccc(-c2cnn[nH]2)cc1`, in the series on HEK-293T, the Activity came out at 5.3%. Moreover, the inhibition was 1% in series [1] and 93% in series [2].

On to `Clc1ccc(CCc2ccccc2)c(-c2c[nH]nn2)c1`, for which the Activity with HEK-293T turned out to be 51.6%. The inhibition in series [1] was determined as 97%; in series [2] it was 70%.

Consider `Clc1cccc(-c2c[nH]nn2)c1`, for which, in the series with HEK-293T, the Activity came out at 0%. Besides, the inhibition was determined as 2% in series [1] and 95% in series [2].
